Measured values taken from US20240109917A1 (ACTELION PHARMACEUTICALS LTD, priority 2020, published 2024).
Read-outs that look alike come from different tables or passages of the source.

Assays:
[1] = biological target: PDGFRβ (Rattus norvegicus (Rat), UniProt Q05030); assay: PDGFRβ Cellular Assay (PDGFRb P-Y751 HTRF in A10 cells stimulated with PDGF-BB); assay type: cell-based
Experimental: (§1) II. Methods and Procedures
Cell Culture and Preparation: Cells are cultured according to ATCC procedure (5) with the addition of the antibiotic penicillin-streptomycin. If working from frozen, cells should be thawed according to ATCC procedure. Depending on the cell density of frozen vial, cells will need time to recover from thaw. An 80% confluent T75 flask should be enough for one 384 well plate.
Stock Solutions: Rat PDGFBB. A 100 ug/mL stock is prepared by reconstituting 50 ug in 500 uL of 4 mM HCl and 0.1% BSA. It can be stored for a month at 4° C., or aliquoted out and frozen in the −20/−80° C. to avoid multiple free-thaw cycles.
Freshly Prepared Solutions:
1× Cisbio cell lysis buffer. The cell lysis buffer is diluted 4-fold with molecular grade water. The blocking agent is then diluted 25-fold in the diluted lysis buffer.
Antibody solutions. Equal amounts d2 and cryptate antibody are diluted 20-fold in detection buffer.
Rat PDGFBB. A working stock of 100 ng/mL is created from the stock solution in 10% FBS culture media.
Step 1: Plating Cells: Media from the A10 cell flask is aspirated. The cells are rinsed with PBS and then trypsinized to disperse the cell layer. The cells are then pelleted are resuspended to 1.25e5 cells/mL. […] Plates are covered and placed in the incubator (37° C. 5% CO2) overnight to allow cells to adhere.
Step 2: Compound Dispense: Approximately 18 hours after plating, dispense 40 nL compound onto cells using Echo. Column 12 is the neutral control DMSO, column 24 is the inhibitor control 10 mM Imatinib (10 uM final assay concentration). The plate is returned to the incubator for 3 hours.
After 10 minutes the media is removed by flicking the plate.
Step 4: Cell lysis and antibody addition: 20 uL lysis buffer per well is added to the plate via Tempest. 5 uL antibody solution is added per well via the Tempest. The plate is placed on the shaker at 230 rpm for 1 hour at room temperature.
Step 5: Detection: The plate is read using the HTRF module on the BMG Pherastar. Data is analyzed using Genedata Screener.
(§2) III. Calculations and Formulas
% Inhibition: % Inhibition=(NC−sample)/(NC−PC)*100 where NC is the mean of negative control (reactions without inhibitor), and PC is the mean of positive control (10 μM imatinib).
IC50 values are determined from a 4-parameter fit, using the following equation: Y=Bottom+(Top−Bottom)/(1+10((Log IC50−X)*Hill slope)), where X=log10 of the compound concentration; top can be defined by PC; bottom defined by NC.

[2] = biological target: VEGFR2, unphosphorylated (Homo sapiens (Human), UniProt P35968); assay: VEGFR ADP GLO Assay; assay type: biochemical
Chain of VEGFR2, unphosphorylated (P35968 20-1356): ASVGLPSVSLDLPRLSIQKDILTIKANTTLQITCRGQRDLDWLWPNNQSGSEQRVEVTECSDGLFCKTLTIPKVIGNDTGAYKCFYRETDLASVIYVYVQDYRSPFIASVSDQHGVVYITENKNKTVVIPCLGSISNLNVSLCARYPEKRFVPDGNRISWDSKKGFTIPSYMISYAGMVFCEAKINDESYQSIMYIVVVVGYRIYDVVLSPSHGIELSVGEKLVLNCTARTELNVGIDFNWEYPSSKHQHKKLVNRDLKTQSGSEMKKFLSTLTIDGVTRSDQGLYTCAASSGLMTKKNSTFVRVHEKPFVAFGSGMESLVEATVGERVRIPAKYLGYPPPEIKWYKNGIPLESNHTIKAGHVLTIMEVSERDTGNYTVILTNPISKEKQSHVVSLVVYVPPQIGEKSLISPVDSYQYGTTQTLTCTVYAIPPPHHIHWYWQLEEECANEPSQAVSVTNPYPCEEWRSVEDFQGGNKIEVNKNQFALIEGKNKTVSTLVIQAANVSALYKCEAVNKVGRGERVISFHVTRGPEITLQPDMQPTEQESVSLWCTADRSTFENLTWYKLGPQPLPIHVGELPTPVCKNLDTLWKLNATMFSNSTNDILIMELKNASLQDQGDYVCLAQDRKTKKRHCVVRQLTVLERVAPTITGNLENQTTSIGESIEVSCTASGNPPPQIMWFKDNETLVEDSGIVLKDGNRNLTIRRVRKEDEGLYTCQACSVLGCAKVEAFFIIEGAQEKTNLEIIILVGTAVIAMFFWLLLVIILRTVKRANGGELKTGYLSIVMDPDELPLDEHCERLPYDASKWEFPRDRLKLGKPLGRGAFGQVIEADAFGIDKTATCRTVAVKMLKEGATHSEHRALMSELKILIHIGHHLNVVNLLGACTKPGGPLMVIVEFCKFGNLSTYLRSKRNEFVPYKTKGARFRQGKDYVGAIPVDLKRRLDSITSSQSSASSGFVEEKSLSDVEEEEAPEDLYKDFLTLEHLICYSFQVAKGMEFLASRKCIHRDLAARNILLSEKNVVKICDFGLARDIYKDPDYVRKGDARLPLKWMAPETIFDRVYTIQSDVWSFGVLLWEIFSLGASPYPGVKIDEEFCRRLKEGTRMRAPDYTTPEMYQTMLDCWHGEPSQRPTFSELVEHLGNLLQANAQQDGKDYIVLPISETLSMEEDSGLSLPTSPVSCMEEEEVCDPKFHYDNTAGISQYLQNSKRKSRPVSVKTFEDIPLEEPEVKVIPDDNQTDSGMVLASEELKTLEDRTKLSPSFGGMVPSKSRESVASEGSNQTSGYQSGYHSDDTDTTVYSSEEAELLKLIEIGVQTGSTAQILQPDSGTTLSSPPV
Experimental: as §1
Assay buffer stock contains 50 mM HEPES pH7.5, 10 mM MgCl2, 0.01% Brij-35, and 1 mM EGTA.
Unphosphorylated VEGFR2. […] Store at −80° C. in aliquots.
Sonicate 10 mg/ml Srctide solution for 10 minutes and then vacuum filter.
Freshly Prepared Solutions
2× kinase solution. Make a working solution of 10 nM unphosphorylated VEGFR2 in Assay buffer. Vacuum filter 2× kinase solution prior to running assay. Keep on ice until use.
2× substrate/ATP solution. Make a working solution of 2 mg/mL srctide and 2.4 mM ATP in Assay buffer. Keep on ice until use.
Step 1. Dispensing inhibitors/controls: Using Echo, dispense 10 nL/well compound serial dilutions in DMSO to columns 1-22 (in 384-well plates) or columns 1-44 (in 1536-well plates). Dilution series=11 pt, 3-fold dilutions. The top compound concentration in the source plate is 4 mM. The top compound concentration in the assay plate is 10 uM. Using Echo, dispense 10 nl/well DMSO to column 23 (in 384-well plates) or columns 45-47 (in 1536-well plates). […] These wells will serve as positive control wells.
Step 2. Pre-incubation of inhibitors with kinase: Add 2 μL/well 2× kinase solution. Centrifuge at 1000 rpm for 1 min. Incubate at room temperature for 30 min.
Step 3. Kinase cascade reaction: Add 2 μL/well 2× substrate/ATP solution to initiate kinase reactions. Centrifuge at 1000 rpm for 1 min. Incubate at room temperature for 180 min.
Final concentrations of components in the assay:
Step 4. Quench: Add 2 uL/well ADP Glo Reagent+0.05% CHAPS. Centrifuge at 1000 rpm for 1 min; Incubate at room temperature for one hour.
Step 5. Detection: Add 2 uL/well Kinase Detection Reagent+0.05% CHAPS. Centrifuge at 1000 rpm for 1 min; Incubate at room temperature for 1 hour; Read Luminescence on a plate reader.
as §2
IC50 values are determined from a 4-parameter fit, using the following equation: Y=Bottom+(Top−Bottom)/(1+10^(Log IC50-X)*Hill slope) where X=log10 of the compound concentration; top can be defined by PC; bottom defined by NC.

Chain of PDGFRβ (Q05030 32-1097): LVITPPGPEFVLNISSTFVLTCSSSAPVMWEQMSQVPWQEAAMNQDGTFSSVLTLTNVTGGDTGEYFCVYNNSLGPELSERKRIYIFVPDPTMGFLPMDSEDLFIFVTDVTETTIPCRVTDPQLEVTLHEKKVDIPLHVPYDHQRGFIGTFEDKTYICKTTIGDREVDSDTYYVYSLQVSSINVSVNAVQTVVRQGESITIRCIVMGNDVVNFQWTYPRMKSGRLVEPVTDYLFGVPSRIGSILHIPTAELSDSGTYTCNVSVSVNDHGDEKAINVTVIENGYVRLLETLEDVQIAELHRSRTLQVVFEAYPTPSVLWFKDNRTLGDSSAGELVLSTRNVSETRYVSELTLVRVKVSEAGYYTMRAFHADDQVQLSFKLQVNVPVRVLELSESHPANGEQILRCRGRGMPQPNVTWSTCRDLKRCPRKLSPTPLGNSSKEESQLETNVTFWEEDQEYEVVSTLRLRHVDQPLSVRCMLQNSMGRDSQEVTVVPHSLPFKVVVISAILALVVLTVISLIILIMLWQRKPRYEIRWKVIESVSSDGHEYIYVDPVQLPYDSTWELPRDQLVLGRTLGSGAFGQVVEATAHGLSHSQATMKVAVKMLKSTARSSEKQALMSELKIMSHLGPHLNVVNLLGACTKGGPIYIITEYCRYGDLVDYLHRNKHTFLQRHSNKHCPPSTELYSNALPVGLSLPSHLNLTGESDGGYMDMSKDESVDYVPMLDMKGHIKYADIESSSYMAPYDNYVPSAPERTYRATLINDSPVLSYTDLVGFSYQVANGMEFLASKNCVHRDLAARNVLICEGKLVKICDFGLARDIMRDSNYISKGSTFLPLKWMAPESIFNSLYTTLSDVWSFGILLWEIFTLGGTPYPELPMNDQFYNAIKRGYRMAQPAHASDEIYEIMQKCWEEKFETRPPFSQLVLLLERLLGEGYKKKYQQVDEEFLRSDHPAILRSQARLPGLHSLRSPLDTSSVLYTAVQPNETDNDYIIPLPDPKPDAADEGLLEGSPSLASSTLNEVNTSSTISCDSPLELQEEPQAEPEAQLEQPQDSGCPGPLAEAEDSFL

SMILES | IC50 ([1]; read-out: PDGFR Cellular IC50) [nM] | IC50 [2] [nM] | IC50 ([1]; PDGFR Cellular IC50) [nM]
COc1ncccc1-c1cn2ncc(C(=O)Nc3cc(NC(=O)CN4C[C@H](CO)O[C@@H](C)C4)cnc3C)c2s1 (stereo in doubt) [Example 381, N-(5-(2-(cis-2-(hydroxymethyl)-6-methylmorpholino)acetamido)-2-methylpyridin-3-yl)-2-(2-methoxypyridin-3-yl)pyrazolo[5,1-b]thiazole-7-carboxamide] | 16 | > 833 | 
COc1ncccc1-c1cn2ncc(C(=O)Nc3cc(NC(=O)CN4CC(OC)C4)cnc3C)c2s1 [Example 400, N-(5-(2-(3-methoxyazetidin-1-yl)acetamido)-2-methylpyridin-3-yl)-2-(2-methoxypyridin-3-yl)pyrazolo[5,1-b]thiazole-7-carboxamide] |  | > 7500 | 14.8
Cc1ncc(NC(=O)CN2CCC[C@@H]2C)cc1NC(=O)c1cnn2cc(-c3cn(C)nc3C)sc12 [Example 438, (S)-2-(1,3-dimethyl-1H-pyrazol-4-yl)-N-(2-methyl-5-(2-(2-methylpyrrolidin-1-yl)acetamido)pyridin-3-yl)pyrazolo[5,1-b]thiazole-7-carboxamide] |  | > 7500 | 3.7
Cc1ncc(NC(=O)CN2CCC[C@H]2C)cc1NC(=O)c1cnn2cc(-c3cn(C)nc3C)sc12 [Example 440, (R)-2-(1,3-dimethyl-1H-pyrazol-4-yl)-N-(2-methyl-5-(2-(2-methylpyrrolidin-1-yl)acetamido)pyridin-3-yl)pyrazolo[5,1-b]thiazole-7-carboxamide] |  | > 7500 | 1.6

The next lines start with results.

IC50 ([1]; read-out: PDGFR Cellular IC50) [nM] | IC50 [2] [nM] | SMILES | IC50 ([1]; PDGFR Cellular IC50) [nM]
9.9 | > 7500 | COCCn1cc(-c2cn3ncc(C(=O)Nc4cc(NC(=O)CN5CC[C@@H](C)C5)cnc4C)c3s2)cn1 (single isomer, unassigned) [Example 327, (R*)-2-(1-(2-methoxyethyl)-1H-pyrazol-4-yl)-N-(2-methyl-5-(2-(3-methylpyrrolidin-1-yl)acetamido)pyridin-3-yl)pyrazolo[5,1-b]thiazole-7-carboxamide] | 
7.1 | > 7500 | COCCn1cc(-c2cn3ncc(C(=O)Nc4cc(NC(=O)CN5CC[C@H](C)C5)cnc4C)c3s2)cn1 (single isomer, unassigned) [Example 328, (S*)-2-(1-(2-methoxyethyl)-1H-pyrazol-4-yl)-N-(2-methyl-5-(2-(3-methylpyrrolidin-1-yl)acetamido)pyridin-3-yl)pyrazolo[5,1-b]thiazole-7-carboxamide] | 
10.3 |  | CCOC1CN(CC(=O)Nc2cnc(C)c(NC(=O)c3cnn4cc(-c5cccnc5OC)sc34)c2)C1 [Example 401] | 
 | > 7500 | COC1CCN(CC(=O)Nc2cnc(C)c(NC(=O)c3cnn4cc(-c5cn(C)nc5C)sc34)c2)C1 (stereo not drawn) [Example 439, 2-(1,3-Dimethyl-1H-pyrazol-4-yl)-N-(5-(2-(3-methoxypyrrolidin-1-yl)acetamido)-2-methylpyridin-3-yl)pyrazolo[5,1-b]thiazole-7-carboxamide] | 12.2
